Assay results as given in patent US11154529B2, “Phosphaplatin liquid formulations” (Phosplatin Therapeutics Inc., priority 2016, dated 2021).

Assay: Ready-to-use formulation stability at 25° C./60% RH, 5 mg/mL (R,R)-pyrodach-2 in 10 mM Potassium Phosphate Buffer at pH 7.2, 10 mL vials
Format: physicochemical
Procedure: A scalable and commercially viable process for the manufacture of a ready-to-use formulation of (R,R)-pyrodach-2 in 10 mM buffer adjusted to a pH of 7.0-7.5 comprises the steps of: a) preparing a 10 mM aqueous solution of buffer; b) adding sufficient hydroxide base to effect neutralization of the added (R,R)-pyrodach-2 to reach a pH of about 7; c) adding (R,R)-pyrodach-2 and allowing it to dissolve; d) if necessary adding additional hydroxide to adjust the pH into a range of about 7.0-7.5; and e) filtering the solution under sterile conditions, filling the solution into glass vials, and covering it with a stopper and/or a cap. Stability data on two large batches of 5 mg/mL (R,R)-pyrodach-2 in 10 mM potassium phosphate buffer were generated. One such batch at pH=7.2 was evaluated at both 25° C./60% RH and refrigerated (2-8° C.) conditions, with data summarized in Table 4 and Table 5, respectively. […] Similar observations have been made for the ready-to-use liquid formulation at pH7.4, as illustrated in Table 6 and Table 7.
• Transfer 4564.6 mg±0.5 mg of potassium phosphate dibasic, trihydrate to a 2-L volumetric flask. • Fill flask to approximately 75% volume with water, swirl as needed to dissolve all solids. • Volumetrically transfer 32.0 mL of 1N KOH to flask. • Dilute flask to volume with water and mix well. • Record pH of final solution. This is the diluent. • Transfer 7653.1 mg±0.5 mg of (R,R)-pyrodach-2 to a compounding vessel. • Transfer 1500 mL of the diluent to the vessel and stir to dissolve solids. • Record pH of final solution. • Pass entire solution through a 0.22 μm sterile filter membrane into a sterile collection vessel. • Calculate (R,R)-pyrodach-2 solution concentration
To a […] glass beaker equipped with mechanical mixer was add 24645.5 g of sterile water for injection. With agitation 47.03 gm of dibasic potassium phosphate USP was added and the solids allowed to dissolve. To the stirred solution was added 253.8 gm of 1.00 N potassium hydroxide. Sterile water for injection USP (900.0 gm) was used as a rinse to facilitate both additions. With vigorous agitation, (R,R)-pyrodach-2 (201.87 gm) was slowly added and agitation continued until all of the solids dissolved. Sterile water for injection USP (900.0 gm) was used as a rinse to facilitate the addition. The pH was determined to be 6.7. A total of 85 mL of 1.00 N potassium hydroxide was added in 5.0 mL aliquots to adjust the pH to 7.3. The solution was sterile filtered through 0.22μ Millipore Millipack filter and aseptically filled, 10 ml top a vial in 10 mL in 10 cc Wheaton clear molded vails, stoppered with a 20 mm stopper and crimp seal capped.

For `O=P1(O)OP(=O)(O)[O][Pt]2([NH][C@@H]3CCCC[C@H]3[NH]2)[O]1` (stereo partly drawn) [(R,R)-pyrodach-2, (R,R)-trans-1,2-cyclohexanediamine-(dihydrogenpyrophosphato)platinum(II)], the “(DACH) Pt-diaquo (~RRT 0.3)” value (1 Month) was 0.15%, the “(DACH) Pt-monoaquo (~RRT 0.7)” value (1 Month) was 0.75% and the “Assay (Potency)” value (1 Month) was 96.5%. The “PT-112 Dimer (~RRT 4.0)” value (1 Month) was 0.33%, the “RRT 0.58” value (1 Month) was 0.13% and the “RRT 0.67” value (1 Month) was 0.06%. For the same compound, the “RRT 3.1-3.2” value (1 Month) was 0.22%, the “Total Related Substances” value (1 Month) was 2% and the pH (1 Month) was 7.2. The “(DACH) Pt-diaquo (~RRT 0.3)” value (2 Month) was 0.09%, the “(DACH) Pt-monoaquo (~RRT 0.7)” value (2 Month) was 0.96% and the “Assay (Potency)” value (2 Month) was 99.5%. The “PT-112 Dimer (~RRT 4.0)” value (2 Month) was 0.36%, the “RRT 0.50” value (2 Month) was 0.05% and the “RRT 0.58” value (2 Month) was 0.15%. The “RRT 0.67” value (2 Month) was 0.09%, the “RRT 3.1-3.2” value (2 Month) was 0.32% and the “RRT 3.65” value (2 Month) was 0.08%. The “Total Related Substances” value (2 Month) was 2%, the pH (2 Month) was 7.2 and the “(DACH) Pt-diaquo (~RRT 0.3)” value (3 Month) was 0.19%. The “(DACH) Pt-monoaquo (~RRT 0.7)” value (3 Month) was 0.73%, the “Assay (Potency)” value (3 Month) was 98.2% and the “PT-112 Dimer (~RRT 4.0)” value (3 Month) was 0.37%. The “RRT 0.50” value (3 Month) was 0.08%, the “RRT 0.58” value (3 Month) was 0.18% and the “RRT 0.67” value (3 Month) was 0.06%. The “RRT 3.1-3.2” value (3 Month) was 0.37%, the “RRT 3.65” value (3 Month) was 0.11% and the “Total Related Substances” value (3 Month) was 2%. The pH (3 Month) was 7.3, the “(DACH) Pt-diaquo (~RRT 0.3)” value (4 Month) was 0.13% and the “(DACH) Pt-monoaquo (~RRT 0.7)” value (4 Month) was 1.05%. For the same compound, the “Assay (Potency)” value (4 Month) was 97.9%, the “PT-112 Dimer (~RRT 4.0)” value (4 Month) was 0.36% and the “RRT 0.50” value (4 Month) was 0.09%. The “RRT 0.58” value (4 Month) was 0.20%, the “RRT 0.67” value (4 Month) was 0.07% and the “RRT 3.1-3.2” value (4 Month) was 0.38%. The “RRT 3.46” value (4 Month) was 0.05%, the “RRT 3.65” value (4 Month) was 0.13% and the “Total Related Substances” value (4 Month) was 2%. The pH (4 Month) was 7.1, the “(DACH) Pt-diaquo (~RRT 0.3)” value (6 Month) was 0.15% and the “(DACH) Pt-monoaquo (~RRT 0.7)” value (6 Month) was 1.03%. The “Assay (Potency)” value (6 Month) was 97.5%, the “PT-112 Dimer (~RRT 4.0)” value (6 Month) was 0.37% and the “RRT 0.50” value (6 Month) was 0.15%. For the same compound, the “RRT 0.58” value (6 Month) was 0.21%, the “RRT 0.67” value (6 Month) was 0.07% and the “RRT 0.86” value (6 Month) was 0.05%. The “RRT 3.1-3.2” value (6 Month) was 0.40%, the “RRT 3.65” value (6 Month) was 0.24% and the “RRT 4.97” value (6 Month) was 0.05%. For the same compound, the “Total Related Substances” value (6 Month) was 3%, the pH (6 Month) was 7.2 and the “Particulate Matter (Light Obscuration)” value (6 Month, first value) was 20 particles particles per container. For the same compound, the “Particulate Matter (Light Obscuration)” value (6 Month, second value) was 3 particles particles per container, the “(DACH) Pt-diaquo (~RRT 0.3)” value (9 Month) was 0.16% and the “(DACH) Pt-monoaquo (~RRT 0.7)” value (9 Month) was 1.10%. The “Assay (Potency)” value (9 Month) was 96.8%, the “PT-112 Dimer (~RRT 4.0)” value (9 Month) was 0.39% and the “RRT 0.50” value (9 Month) was 0.19%. For the same compound, the “RRT 0.58” value (9 Month) was 0.27%, the “RRT 0.67” value (9 Month) was 0.10% and the “RRT 0.86” value (9 Month) was 0.05%. The “RRT 3.1-3.2” value (9 Month) was 0.30%, the “RRT 3.65” value (9 Month) was 0.39% and the “RRT 4.97” value (9 Month) was 0.08%. The “Total Related Substances” value (9 Month) was 3%, the pH (9 Month) was 7.2 and the “(DACH) Pt-diaquo (~RRT 0.3)” value (12 Month) was 0.18%. For the same compound, the “(DACH) Pt-monoaquo (~RRT 0.7)” value (12 Month) was 0.91%, the “Assay (Potency)” value (12 Month) was 96.8% and the “PT-112 Dimer (~RRT 4.0)” value (12 Month) was 0.33%. The “RRT 0.41” value (12 Month) was 0.05%, the “RRT 0.50” value (12 Month) was 0.26% and the “RRT 0.58” value (12 Month) was 0.26%. The “RRT 0.67” value (12 Month) was 0.13%, the “RRT 0.86” value (12 Month) was 0.05% and the “RRT 3.1-3.2” value (12 Month) was 0.44%. The “RRT 3.65” value (12 Month) was 0.52%, the “RRT 4.97” value (12 Month) was 0.20% and the “Total Related Substances” value (12 Month) was 3%. The pH (12 Month) was 7.2, the “Particulate Matter (Light Obscuration)” value (12 Month, first value) was 36 particles particles per container and the “Particulate Matter (Light Obscuration)” value (12 Month, second value) was 2 particles particles per container. The “(DACH) Pt-diaquo (~RRT 0.3)” value (15 Month) was 0.14%, the “(DACH) Pt-monoaquo (~RRT 0.7)” value (15 Month) was 0.84% and the “Assay (Potency)” value (15 Month) was 98.1%. For the same compound, the “PT-112 Dimer (~RRT 4.0)” value (15 Month) was 0.29%, the “RRT 0.41” value (15 Month) was 0.07% and the “RRT 0.50” value (15 Month) was 0.37%. The “RRT 0.58” value (15 Month) was 0.26%, the “RRT 0.67” value (15 Month) was 0.07% and the “RRT 3.1-3.2” value (15 Month) was 0.41%. For the same compound, the “RRT 3.65” value (15 Month) was 0.63%, the “RRT 4.97” value (15 Month) was 0.28% and the “Total Related Substances” value (15 Month) was 3%. The pH (15 Month) was 7.3, the “(DACH) Pt-diaquo (~RRT 0.3)” value (18 Month) was 0.14% and the “(DACH) Pt-monoaquo (~RRT 0.7)” value (18 Month) was 1.04%. The “Assay (Potency)” value (18 Month) was 99.0%, the “PT-112 Dimer (~RRT 4.0)” value (18 Month) was 0.30% and the “RRT 0.41” value (18 Month) was 0.06%. For the same compound, the “RRT 0.50” value (18 Month) was 0.36%, the “RRT 0.58” value (18 Month) was 0.29% and the “RRT 0.67” value (18 Month) was 0.11%. The “RRT 0.86” value (18 Month) was 0.14%, the “RRT 3.1-3.2” value (18 Month) was 0.40% and the “RRT 3.65” value (18 Month) was 0.75%. For the same compound, the “RRT 4.97” value (18 Month) was 0.43%, the “Total Related Substances” value (18 Month) was 4% and the pH (18 Month) was 7.2. The “(DACH) Pt-diaquo (~RRT 0.3)” value (24 Month) was 0.15%, the “(DACH) Pt-monoaquo (~RRT 0.7)” value (24 Month) was 0.83% and the “Assay (Potency)” value (24 Month) was 97.5%. The “PT-112 Dimer (~RRT 4.0)” value (24 Month) was 0.36%, the “RRT 0.41” value (24 Month) was 0.12% and the “RRT 0.46” value (24 Month) was 0.10%. For the same compound, the “RRT 0.50” value (24 Month) was 0.70%, the “RRT 0.58” value (24 Month) was 0.17% and the “RRT 0.67” value (24 Month) was 0.07%. The “RRT 3.1-3.2” value (24 Month) was 0.41%, the “RRT 3.46” value (24 Month) was 0.07% and the “RRT 3.65” value (24 Month) was 1.24%. The “RRT 4.97” value (24 Month) was 0.73%, the “Total Related Substances” value (24 Month) was 5% and the pH (24 Month) was 7.2. For the same compound, the “Particulate Matter (Light Obscuration)” value (24 Month, first value) was 81 particles particles per container, the “Particulate Matter (Light Obscuration)” value (24 Month, second value) was 4 particles particles per container and the “(DACH) Pt-diaquo (~RRT 0.3)” value (Initial) was 0.16%. For the same compound, the “(DACH) Pt-monoaquo (~RRT 0.7)” value (Initial) was 0.98%, the “Assay (Potency)” value (Initial) was 99.8% and the “PT-112 Dimer (~RRT 4.0)” value (Initial) was 0.19%. The “RRT 0.58” value (Initial) was 0.13%, the “RRT 0.67” value (Initial) was 0.05% and the “Total Related Substances” value (Initial) was 2%. For the same compound, the pH (Initial) was 7.2, the “Particulate Matter (Light Obscuration)” value (Initial, first value) was 219 particles particles per container and the “Particulate Matter (Light Obscuration)” value (Initial, second value) was 11 particles particles per container.
